Source: ChEMBL document CHEMBL1151759 (J Med Chem, 2008)

Columns and labels:
[1] = target: T1, Neuropeptide Y receptor type 1 (Homo sapiens, UniProt P25929); test: Displacement of [3H]UR-MK114 from neuropeptide Y1 receptor in human SK-N-MC cells; assay type: cell-based
T1 sequence (P25929 whole entry): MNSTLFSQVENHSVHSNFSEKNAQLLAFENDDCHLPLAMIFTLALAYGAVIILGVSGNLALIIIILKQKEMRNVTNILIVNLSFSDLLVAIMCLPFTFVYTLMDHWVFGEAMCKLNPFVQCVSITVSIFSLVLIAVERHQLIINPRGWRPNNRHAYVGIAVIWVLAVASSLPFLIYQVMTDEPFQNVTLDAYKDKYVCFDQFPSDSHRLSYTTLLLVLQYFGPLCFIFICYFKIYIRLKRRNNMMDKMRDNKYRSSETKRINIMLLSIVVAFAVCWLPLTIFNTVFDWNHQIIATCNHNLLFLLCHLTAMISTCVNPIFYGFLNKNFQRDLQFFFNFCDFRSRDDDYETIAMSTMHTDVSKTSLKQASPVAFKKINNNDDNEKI

[2] = target: T1, Neuropeptide Y receptor type 1; test: Displacement of [3H]propionyl-pNPY from neuropeptide Y1 receptor in human SK-N-MC cells; assay type: cell-based
[3] = target: Neuropeptide Y receptor type 4 (Homo sapiens, UniProt P50391); test: Displacement of Cy5-[K4]-hPP from human neuropeptide Y4 receptor expressed in CHO cells coexpressing Galphaqi5 and aequorin by flow cytometric assay; assay type: cell-based
[4] = target: T2, Neuropeptide Y receptor type 2 (Homo sapiens, UniProt P49146); test: Displacement of Dy-635-pNPY from human neuropeptide Y2 receptor expressed in CHO cells coexpressing Galphaqi5 and aequorin by flow cytometric assay; assay type: cell-based
T2 sequence (P49146 whole entry): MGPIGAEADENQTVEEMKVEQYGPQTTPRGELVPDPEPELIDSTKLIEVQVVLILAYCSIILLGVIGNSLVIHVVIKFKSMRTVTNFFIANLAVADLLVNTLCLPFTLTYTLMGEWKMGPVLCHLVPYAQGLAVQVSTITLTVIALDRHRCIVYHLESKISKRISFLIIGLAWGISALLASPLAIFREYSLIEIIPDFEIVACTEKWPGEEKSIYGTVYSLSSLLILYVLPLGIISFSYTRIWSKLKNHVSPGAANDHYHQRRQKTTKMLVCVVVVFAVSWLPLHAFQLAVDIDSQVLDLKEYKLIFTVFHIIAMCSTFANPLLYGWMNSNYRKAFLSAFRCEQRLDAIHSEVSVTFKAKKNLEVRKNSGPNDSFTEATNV

[5] = target: T3, Neuropeptide Y receptor type 1 (Homo sapiens) (UniProt P25929)
T3 sequence (whole entry): T1 sequence (P25929 whole entry)

[6] = target: T4, Neuropeptide Y receptor type 5 (Homo sapiens, UniProt Q15761); test: Displacement of Dy-635-pNPY from human neuropeptide Y5 receptor expressed in HEC-1B cells by flow cytometric assay; assay type: cell-based
T4 sequence (Q15761 whole entry): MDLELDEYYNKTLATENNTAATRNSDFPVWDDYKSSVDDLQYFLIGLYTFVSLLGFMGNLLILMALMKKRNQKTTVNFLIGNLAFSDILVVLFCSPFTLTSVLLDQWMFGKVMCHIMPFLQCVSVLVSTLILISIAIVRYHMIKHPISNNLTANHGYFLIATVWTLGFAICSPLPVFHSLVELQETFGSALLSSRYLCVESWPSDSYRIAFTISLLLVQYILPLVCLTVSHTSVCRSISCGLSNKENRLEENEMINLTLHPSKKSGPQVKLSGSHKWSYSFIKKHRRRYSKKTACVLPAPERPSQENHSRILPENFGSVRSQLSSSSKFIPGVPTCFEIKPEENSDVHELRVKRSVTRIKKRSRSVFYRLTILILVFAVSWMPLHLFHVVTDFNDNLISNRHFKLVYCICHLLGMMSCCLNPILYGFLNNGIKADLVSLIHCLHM

[7] = target: T1, Neuropeptide Y receptor type 1; test: Binding affinity to neuropeptide Y1 receptor in human MCF7 cells; assay type: cell-based
[8] = Chemical stability of compound assessed as half life; assay type: physicochemical
[9] = target: T1, Neuropeptide Y receptor type 1; test: Binding affinity to neuropeptide Y1 receptor in human MCF7 cells by kinetic experiment; assay type: cell-based
[10] = target: T1, Neuropeptide Y receptor type 1; test: Binding affinity to neuropeptide Y1 receptor in human SK-N-MC cells; assay type: cell-based
[11] = target: T1, Neuropeptide Y receptor type 1; test: Binding affinity to neuropeptide Y1 receptor in human SK-N-MC cells by kinetic experiment; assay type: cell-based

Neuropeptide Y receptor type 4, sequence (P50391 whole entry): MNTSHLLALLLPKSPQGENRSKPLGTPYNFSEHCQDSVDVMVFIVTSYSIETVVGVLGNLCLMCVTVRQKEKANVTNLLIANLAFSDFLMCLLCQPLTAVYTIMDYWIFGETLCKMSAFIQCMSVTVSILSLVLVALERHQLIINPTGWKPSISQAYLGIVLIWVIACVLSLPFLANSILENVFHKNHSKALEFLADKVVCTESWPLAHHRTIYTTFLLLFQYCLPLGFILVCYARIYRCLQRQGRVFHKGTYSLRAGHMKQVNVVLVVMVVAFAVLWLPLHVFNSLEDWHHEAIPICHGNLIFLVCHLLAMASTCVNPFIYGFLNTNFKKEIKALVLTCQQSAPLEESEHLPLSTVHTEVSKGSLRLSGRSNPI

## CCOC(=O)CNC(=O)/N=C(/N)NCCC[C@@H](NC(=O)C(c1ccccc1)c1ccccc1)C(=O)NCc1ccc(O)cc1
[1]
  Ki: 0.1 nM

## CCOC(=O)NC(N)=NCCC[C@@H](NC(=O)C(c1ccccc1)c1ccccc1)C(=O)NCc1ccc(O)cc1
[2]
  Ki: 4.5 nM

## CCC/N=C(/N)NCCC[C@@H](NC(=O)C(c1ccccc1)c1ccccc1)C(=O)NCc1ccc(O)cc1
[2]
  Ki: 27 nM

## CC(=O)/N=C(/N)NCCC[C@@H](NC(=O)C(c1ccccc1)c1ccccc1)C(=O)NCc1ccc(O)cc1
[2]
  Ki: 12 nM

## CCC(=O)/N=C(/N)NCCC[C@@H](NC(=O)C(c1ccccc1)c1ccccc1)C(=O)NCc1ccc(O)cc1
[1]
  IC50: 2.24 nM
  Kd: 1.2 nM
  Ki: 1 nM
[3]
  Ki: > 10000 nM
[4]
  Ki: > 10000 nM
[5]
  pKb: 9.1
[6]
  Ki: > 2000 nM
[7]
  Ki: 1.2 nM

## CCNC(=O)/N=C(/N)NCCC[C@@H](NC(=O)C(c1ccccc1)c1ccccc1)C(=O)NCc1ccc(O)cc1
[1]
  Ki: 0.1 nM

## COC(=O)NC(N)=NCCC[C@@H](NC(=O)C(c1ccccc1)c1ccccc1)C(=O)NCc1ccc(O)cc1
[2]
  Ki: 33 nM

## [3H]CC([3H])C(=O)/N=C(/N)NCCC[C@@H](NC(=O)C(c1ccccc1)c1ccccc1)C(=O)NCc1ccc(O)cc1 (some centres undefined)
[8]
  half-life: 2.2 min
[9]
  Kd: 1.1 nM
[10]
  Kd: 1.2 nM
[11]
  Kd: 1.1 nM
[7]
  Kd: 2.9 nM
